Consider one compound from patent US20220257597A1, “Methods of Administering Elagolix” (AbbVie Inc., priority 2021, published 2022).

Each structure is given as a SMILES string. Numbering of substitutions follows the chain as printed. “Also recorded” adds a separate entry of the source.

The target of data set [1] is P-gp (Homo sapiens, UniProt P08183). Put plainly: Substrate of P-gp. The format is in vitro ADME.
Data set [2] can be described thus: Elagolix apparent terminal phase elimination half-life. The conditions noted are these: human, in vivo; read-out: apparent terminal phase elimination half-life (t1/2).
Data set [3] deals with efflux transporter P-glycoprotein (P-gp) (Homo sapiens, UniProt P08183). Nature of the data set: P-glycoprotein inhibition. It counts as in vitro ADME.
Data set [4] is described as follows: Embryofetal development study in the rat. The format is in vivo.
Method: Embryofetal development studies were conducted in the rat and rabbit. Elagolix was administered by oral gavage to pregnant rats (25 animals/dose) at doses of 0, 300, 600 and 1200 mg/kg/day and to rabbits (20 animals/dose) at doses of 0, 100, 150, and 200 mg/kg/day, during the period of organogenesis (gestation day 6-17 in the rat and gestation day 7-20 in the rabbit).
Data set [5] concerns CYP3A. Nature of the data set: Substrate of / metabolism by CYP3A. It counts as in vitro ADME.
Data set [6] has as its target T1, OATP1B1 (Homo sapiens, UniProt Q9Y6L6).
T1 sequence (Q9Y6L6 1-691): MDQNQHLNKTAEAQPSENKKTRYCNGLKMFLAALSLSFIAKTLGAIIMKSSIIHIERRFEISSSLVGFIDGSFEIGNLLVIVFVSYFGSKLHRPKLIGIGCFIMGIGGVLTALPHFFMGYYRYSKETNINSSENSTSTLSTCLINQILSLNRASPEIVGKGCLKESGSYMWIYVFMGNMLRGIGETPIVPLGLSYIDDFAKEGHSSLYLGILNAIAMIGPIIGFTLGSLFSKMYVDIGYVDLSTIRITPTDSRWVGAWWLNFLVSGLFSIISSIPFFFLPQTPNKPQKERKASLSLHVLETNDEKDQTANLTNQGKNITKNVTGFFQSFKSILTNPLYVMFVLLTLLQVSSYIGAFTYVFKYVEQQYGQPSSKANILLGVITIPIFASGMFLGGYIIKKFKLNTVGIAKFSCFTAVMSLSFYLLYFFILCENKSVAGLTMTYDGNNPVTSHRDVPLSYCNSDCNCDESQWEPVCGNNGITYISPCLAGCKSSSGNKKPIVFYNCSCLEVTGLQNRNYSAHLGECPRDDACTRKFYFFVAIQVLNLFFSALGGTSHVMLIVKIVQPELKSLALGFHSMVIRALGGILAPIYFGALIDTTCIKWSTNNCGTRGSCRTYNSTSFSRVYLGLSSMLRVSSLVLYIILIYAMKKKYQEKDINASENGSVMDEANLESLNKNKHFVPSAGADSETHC
Nature of the data set: Substrate of OATP1B1. The format is in vitro ADME.

The subject of data set [7] is CYP3A4. Put plainly: In vitro studies: CYP3A induction. The format is in vitro ADME.
The nature of data set [8]: Pre- and postnatal development study in rats. It counts as in vivo, rat. The conditions noted are these: for maternal plasma concentration relative to maximal elagolix concentration (Cmax) in humans at the MRHD: lactation day 21. As for the experimental part: In a pre- and postnatal development study in rats, elagolix was given in the diet to achieve doses of 0, 100 and 300 mg/kg/day (25 per dose group) from gestation day 6 to lactation day 20. […] Pup survival was decreased from birth to postnatal day 4. […] Smaller body size and effect on startle response were associated with lower pup weights at 300 mg/kg/day. Post-weaning growth, development and behavioral endpoints were unaffected.

The target in data set [9] is T2, OATP1B1 transporter protein (Homo sapiens, UniProt Q9Y6L6, V174A).
T2 construct: Hepatic uptake of elagolix involves the OATP1B1 transporter protein; from tissue; host or cells: liver of patients (in vivo)
T2 sequence (Q9Y6L6 1-691 V174A): T1 sequence (Q9Y6L6 1-691) with V174A
Nature of the data set: Pharmacogenomics: elagolix plasma concentrations by SLCO1B1 521 genotype. The conditions noted are these: women with two reduced function alleles. It counts as in vivo. The source says: Hepatic uptake of elagolix involves the OATP1B1 transporter protein. Higher plasma concentrations of elagolix have been observed in patients who have two reduced function alleles of the gene that encodes OATP1B1 (SLCO1B1 521T>C) (these patients are likely to have reduced hepatic uptake of elagolix; and thus, higher plasma elagolix concentrations). The frequency of this SLCO1B1 521 C/C genotype is generally less than 5% in most racial/ethnic groups. Women with this genotype are expected to have approximately 2-fold higher elagolix mean concentrations compared to women with normal transporter function (i.e., SLCO1B1 521T/T genotype). Adverse effects of elagolix have not been fully evaluated in subjects who have two reduced function alleles of the gene that encodes OATP1B1 (SLCO1B1 521T>C).

Data set [10] can be described thus: Drug-drug interaction study: effect of multiple doses of elagolix sodium on pharmacokinetics of bupropion (CYP2B6 substrate) and OH-bupropion. As for the experimental part: Subjects: Twenty four (24) adult premenopausal women in generally good health participated in this study.
Elagolix 300 mg BID (as 300 mg immediate release tablets) was administered in the morning and evening on days 1 through 14 in period 2. […] No food was consumed for 2 hours prior to the evening doses of elagolix continuing through 2 hours after. The doses of elagolix were separated by approximately 12 hours.
Individual PK parameters (peak concentration [Cmax] and area under the concentration-time curve [AUC]) were estimated using noncompartmental methods.
Central value ratios (90% confidence intervals) for Cmax, AUC, and metabolite to parent ratios (MPRs) (day 11, period 2 vs. day 1, period 1) were calculated to assess the DDIs. Safety was evaluated through assessment of adverse events, vital signs, electrocardiogram, and clinical laboratory tests.
Adverse events (AEs) were monitored throughout the DDI study. Additional safety evaluations included monitoring of physical examinations, vital signs, electrocardiogram variables, and clinical laboratory values were assessed

For data set [11], the target named is CYP2C19 (Homo sapiens, UniProt P33261). Put plainly: In vitro studies: CYP2C19 inhibition. It counts as in vitro ADME.
CYP2C19, sequence (P33261 whole entry): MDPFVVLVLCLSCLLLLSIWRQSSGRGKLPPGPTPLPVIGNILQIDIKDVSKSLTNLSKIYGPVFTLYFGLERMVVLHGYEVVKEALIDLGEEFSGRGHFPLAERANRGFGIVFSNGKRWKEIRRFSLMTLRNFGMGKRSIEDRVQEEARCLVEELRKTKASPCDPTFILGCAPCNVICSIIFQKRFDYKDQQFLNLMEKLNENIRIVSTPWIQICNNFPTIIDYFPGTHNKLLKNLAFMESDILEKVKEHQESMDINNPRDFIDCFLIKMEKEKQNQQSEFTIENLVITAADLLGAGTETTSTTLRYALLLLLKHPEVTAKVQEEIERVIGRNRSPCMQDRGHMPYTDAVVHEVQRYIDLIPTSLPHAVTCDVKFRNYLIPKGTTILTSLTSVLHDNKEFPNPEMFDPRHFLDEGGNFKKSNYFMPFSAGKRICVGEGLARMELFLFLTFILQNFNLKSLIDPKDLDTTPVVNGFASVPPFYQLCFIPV

efflux transporter P-glycoprotein (P-gp), sequence (P08183 whole entry): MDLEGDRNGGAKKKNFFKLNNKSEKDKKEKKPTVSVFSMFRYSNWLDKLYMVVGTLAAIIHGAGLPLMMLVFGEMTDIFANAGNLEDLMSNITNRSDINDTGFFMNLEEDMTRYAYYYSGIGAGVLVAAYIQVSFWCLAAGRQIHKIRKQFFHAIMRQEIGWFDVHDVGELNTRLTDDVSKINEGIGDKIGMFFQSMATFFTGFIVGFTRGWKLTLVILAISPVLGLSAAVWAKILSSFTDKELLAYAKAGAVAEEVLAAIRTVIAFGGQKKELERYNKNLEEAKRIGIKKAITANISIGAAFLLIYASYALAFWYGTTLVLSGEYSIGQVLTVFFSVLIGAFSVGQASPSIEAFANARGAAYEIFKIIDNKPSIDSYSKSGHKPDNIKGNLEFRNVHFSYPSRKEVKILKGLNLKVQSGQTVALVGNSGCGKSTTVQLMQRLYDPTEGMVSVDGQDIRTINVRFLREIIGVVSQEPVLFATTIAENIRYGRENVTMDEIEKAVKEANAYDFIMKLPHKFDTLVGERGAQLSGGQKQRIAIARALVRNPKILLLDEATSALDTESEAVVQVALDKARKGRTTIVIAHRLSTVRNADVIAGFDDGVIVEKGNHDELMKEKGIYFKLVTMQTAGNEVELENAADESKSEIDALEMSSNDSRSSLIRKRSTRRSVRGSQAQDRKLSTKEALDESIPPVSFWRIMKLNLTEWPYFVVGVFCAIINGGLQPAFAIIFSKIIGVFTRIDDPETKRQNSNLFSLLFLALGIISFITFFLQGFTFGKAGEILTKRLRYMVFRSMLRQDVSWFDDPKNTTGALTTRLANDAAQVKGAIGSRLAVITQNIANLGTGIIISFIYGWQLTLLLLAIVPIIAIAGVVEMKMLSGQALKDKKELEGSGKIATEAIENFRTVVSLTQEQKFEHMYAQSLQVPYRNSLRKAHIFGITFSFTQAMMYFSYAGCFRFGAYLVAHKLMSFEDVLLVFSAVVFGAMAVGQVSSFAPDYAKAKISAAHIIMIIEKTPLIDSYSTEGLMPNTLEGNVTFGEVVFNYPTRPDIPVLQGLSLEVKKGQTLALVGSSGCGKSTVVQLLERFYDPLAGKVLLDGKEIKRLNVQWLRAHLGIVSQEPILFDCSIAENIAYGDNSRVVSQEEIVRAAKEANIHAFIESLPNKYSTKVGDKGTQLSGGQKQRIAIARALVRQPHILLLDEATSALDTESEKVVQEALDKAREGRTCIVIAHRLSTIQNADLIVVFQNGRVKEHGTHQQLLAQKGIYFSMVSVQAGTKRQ
P-gp, sequence (P08183 whole entry): as above

As to `COc1cccc(-c2c(C)n(Cc3c(F)cccc3C(F)(F)F)c(=O)n(C[C@H](NCCCC(=O)O)c3ccccc3)c2=O)c1F` [elagolix, 4-((R)-2-[5-(2-fluoro-3-methoxy-phenyl)-3-(2-fluoro-6-trifluoromethyl-benzyl)-4-methyl-2,6-dioxo-3,6-dihydro-2H-pyrimidin-1-yl]-1-phenyl-ethylamino)-butyric acid], the “substrate of P-gp” value in [1] is reported as “substrate”. Also, the half-life in [2] was 4 to 6 h. The “inhibitor of efflux transporter P-glycoprotein (P-gp)” value in [3] is recorded as “inhibitor”. Besides, the “dose with increased post implantation losses, as multiple of the MRHD based on AUC” value in [4] (pregnant rats, mid dose group) is listed as 12 times the MRHD. Besides, in [4] (pregnant rats, oral gavage 300, 600 and 1200 mg/kg/day), the maternal deaths result is “six deaths”. Besides, in [4] (rat, any dose level tested), the “fetal malformations / structural abnormalities” value is on record as “no structural abnormalities; also recorded: No fetal malformations”. For the same compound, the “substrate of CYP3A” value in [5] is recorded as “substrate”. Further, in data set [6], the “substrate of OATP1B1” value is recorded as “substrate”. In data set [7], the “inducer of CYP3A4 / cytochrome P450 (CYP) 3A” value is “weak to moderate inducer”. Also, the “post-weaning growth, development and behavioral endpoints” value in [8] was “unaffected”. For the same compound, the “maternal plasma concentration relative to maximal elagolix concentration (Cmax) in humans at the MRHD” value in data set [8] (100 mg/kg/day) is recorded as 0.04 fold. Moreover, in [8] (300 mg/kg/day), the “litter findings at the highest dose” value is “two dams had total litter loss, and one failed to deliver”; the “maternal plasma concentration relative to maximal elagolix concentration (Cmax) in humans at the MRHD” value amounted to 0.1 fold. In data set [8] (300 mg/kg/day, pre-weaning period), the “pup birth weights and body weight gains” value was “lower birth weights and lower body weight gains”. In addition, the “pup survival from birth to postnatal day 4” value in data set [8] (highest dose) is recorded as “decreased”. Besides, the “elagolix mean concentrations, SLCO1B1 521 C/C genotype compared to SLCO1B1 521T/T genotype” value in [9] was “approximately 2 fold”. Moreover, in data set [10] (elagolix 300 mg BID for 10 days), the “CYP2B6 induction in the healthy volunteer study” value was “did not induce CYP2B6”. In addition, the “tolerability of co-administration of elagolix and bupropion” value in [10] (healthy premenopausal female subjects) is reported as “generally well tolerated”. Further, the “inhibitor of CYP2C19” value in [11] is given as “weak inhibitor”.
